Experimental data reported in PubChem BioAssay AID248 (DTP/NCI, 2004).
Toxic doses and inconclusive results are not listed. No stated cut-off is given here; in the data, active means T/C of 150% or more; inactive means T/C below 125%.

Tested on: L1210 leukemia ip in BDF1 mice, survival T/C
Experiment: NCI In Vivo Anticancer Drug Screen. Data for tumor model L1210 Leukemia (intraperitoneal) in B6D2F1 (BDF1) mice
Settings: endpoint: mean survival time, higher = longer survival
Outline: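 Survival endpoint. Drug-treated group vs vehicle group, expressed as T divided by C. Tumor passaged by transplantation.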

[1] = dose: 100.0 mg/kg/injection, schedule: Q04DX003 (ip), vehicle: Klucel (hydroxypropylcellulose) (HPC)
[2] = dose: 200.0 mg/kg/injection, schedule: Q04DX003 (ip), vehicle: Klucel (hydroxypropylcellulose) (HPC)
[3] = dose: 400.0 mg/kg/injection, schedule: Q04DX003 (ip), vehicle: Klucel (hydroxypropylcellulose) (HPC)
[4] = dose: 100.0 mg/kg/injection, schedule: Q01DX009 (ip), vehicle: saline with Tween-80
[5] = dose: 200.0 mg/kg/injection, schedule: Q01DX009 (ip), vehicle: saline with Tween-80
[6] = dose: 400.0 mg/kg/injection, schedule: Q01DX009 (ip), vehicle: saline with Tween-80

Measured: T/C

NN=C(c1ccccc1)c1ccccc1
inactive: dose: 1.3 mg/kg/injection, schedule: Q01DX009 (ip), vehicle: Klucel (hydroxypropylcellulose) (HPC) 103 % of control | dose: 2.61 mg/kg/injection, schedule: Q01DX009 (ip), vehicle: Klucel (hydroxypropylcellulose) (HPC) 94 % of control | dose: 5.23 mg/kg/injection, schedule: Q01DX009 (ip), vehicle: Klucel (hydroxypropylcellulose) (HPC) 94 % of control | dose: 10.46 mg/kg/injection, schedule: Q01DX009 (ip), vehicle: Klucel (hydroxypropylcellulose) (HPC) 86 % of control | dose: 25.0 mg/kg/injection, schedule: Q04DX003 (ip), vehicle: Klucel (hydroxypropylcellulose) (HPC) 97 % of control | dose: 41.87 mg/kg/injection, schedule: Q01DX009 (ip), vehicle: Klucel (hydroxypropylcellulose) (HPC) 91 % of control | dose: 50.0 mg/kg/injection, schedule: Q01DX001 (ip), vehicle: saline 96 % of control | dose: 50.0 mg/kg/injection, schedule: Q04DX003 (ip), vehicle: Klucel (hydroxypropylcellulose) (HPC) 92 % of control | dose: 83.7 mg/kg/injection, schedule: Q01DX009 (ip), vehicle: Klucel (hydroxypropylcellulose) (HPC) 98 % of control | dose: 100.0 mg/kg/injection, schedule: Q01DX001 (ip), vehicle: saline 96 % of control | [1] 111 % of control | dose: 200.0 mg/kg/injection, schedule: Q01DX001 (ip), vehicle: saline 100 % of control | dose: 400.0 mg/kg/injection, schedule: Q01DX001 (ip), vehicle: saline 96 % of control

CC1=CCc2c(NS(=O)(=O)N(C)C)ccc(NS(=O)(=O)N(C)C)c2C1
inactive: dose: 100.0 mg/kg/injection, schedule: Q01DX001 (ip), vehicle: Klucel (hydroxypropylcellulose) (HPC) 101 % of control | [1] 94 % of control | dose: 200.0 mg/kg/injection, schedule: Q01DX001 (ip), vehicle: Klucel (hydroxypropylcellulose) (HPC) 97 % of control | [2] 93 % of control | dose: 400.0 mg/kg/injection, schedule: Q01DX001 (ip), vehicle: Klucel (hydroxypropylcellulose) (HPC) 97 % of control | [3] 91 % of control

Cc1ccccc1OCC(=O)Nc1cccc(NC(=O)COc2ccccc2C)c1
inactive: dose: 50.0 mg/kg/injection, schedule: Q04DX002 (sc), vehicle: olive oil, sesame oil, peanut oil 110 % of control | dose: 100.0 mg/kg/injection, schedule: Q04DX002 (sc), vehicle: olive oil, sesame oil, peanut oil 100 % of control | dose: 200.0 mg/kg/injection, schedule: Q04DX002 (sc), vehicle: olive oil, sesame oil, peanut oil 95 % of control

O=C(Nc1ccccc1Cl)Oc1ccc(-c2ccccc2)cc1Br
inactive: dose: 100.0 mg/kg/injection, schedule: Q01DX009 (ip), vehicle: Klucel (hydroxypropylcellulose) (HPC) 102 % of control | [1] 94 % of control | dose: 200.0 mg/kg/injection, schedule: Q01DX009 (ip), vehicle: Klucel (hydroxypropylcellulose) (HPC) 96 % of control | [2] 96 % of control | dose: 400.0 mg/kg/injection, schedule: Q01DX009 (ip), vehicle: Klucel (hydroxypropylcellulose) (HPC) 104 % of control | [3] 102 % of control

NC(=O)C1CCC1C(N)=O (configuration not stated)
inactive: [4] 108 % of control | [5] 101 % of control | [6] 103 % of control

O=C1NC(=S)N/C1=C/c1ccc2c(c1)CCC2
inactive: [4] 112 % of control | dose: 100.0 mg/kg/injection, schedule: Q04DX003 (ip), vehicle: saline with Tween-80 95 % of control | [5] 94 % of control | dose: 200.0 mg/kg/injection, schedule: Q04DX003 (ip), vehicle: saline with Tween-80 101 % of control | [6] 102 % of control | dose: 400.0 mg/kg/injection, schedule: Q04DX003 (ip), vehicle: saline with Tween-80 87 % of control

NC(=O)C1(c2ccccc2)CC1
inactive: dose: 100.0 mg/kg/injection, schedule: Q01DX009 (ip), vehicle: saline 100 % of control | dose: 100.0 mg/kg/injection, schedule: Q04DX003 (ip), vehicle: saline 88 % of control | dose: 200.0 mg/kg/injection, schedule: Q01DX009 (ip), vehicle: saline 103 % of control | dose: 200.0 mg/kg/injection, schedule: Q04DX003 (ip), vehicle: saline 93 % of control | dose: 400.0 mg/kg/injection, schedule: Q04DX003 (ip), vehicle: saline 107 % of control
